# Assay results taken from patent US10689331B2, “IDO inhibitors” (Bristol-Myers Squibb Company, priority 2015, dated 2020).
# Molecular target: T1, human IDO1 (Homo sapiens, UniProt P14902)
# T1 construct: expressed in transfected cells
# Assay: HEK Human IDO-1 inhibition assay (kynurenine readout, Ehrlich reagent, absorbance 490 nm)
# Format: cell-based
# Conditions: human IDO1/HEK293 cells, incubated 20 hours with compound; 500 nM reference standard = 100% inhibition
# How it was run: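 HEK293 cells stably expressing human IDO1, treated with compound for 20 h at 37 °C in phenol red-free RPMI/10% FBS. Kynurenine detected after TCA (0.2% final, 50 °C, 30 min) by Ehrlich reagent absorbance at 490 nm; IC50 normalised to 500 nM reference standard (100%) and DMSO (0%).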
# T1 sequence (P14902 whole entry): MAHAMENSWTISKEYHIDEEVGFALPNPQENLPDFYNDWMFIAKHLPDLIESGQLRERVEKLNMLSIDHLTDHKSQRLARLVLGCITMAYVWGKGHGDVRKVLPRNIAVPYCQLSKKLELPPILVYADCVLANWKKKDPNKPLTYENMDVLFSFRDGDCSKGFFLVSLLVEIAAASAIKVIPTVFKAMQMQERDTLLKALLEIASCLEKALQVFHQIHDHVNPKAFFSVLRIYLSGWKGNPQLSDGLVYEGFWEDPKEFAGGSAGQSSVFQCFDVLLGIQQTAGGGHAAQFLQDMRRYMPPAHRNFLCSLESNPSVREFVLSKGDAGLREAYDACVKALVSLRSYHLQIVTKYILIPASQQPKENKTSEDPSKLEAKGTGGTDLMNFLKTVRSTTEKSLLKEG
row,Compound,IC50
1,"C=C(C)CN1CCC(N(CC(=C)C)c2ccc(OCC(=O)O)cc2NC(=O)Nc2ccc(Cl)cc2F)CC1 [Example 142, 2-(3-(3-(4-chloro-2-fluorophenyl)ureido)-4-((2-methylallyl)(1-(2-methylallyl)piperidin-4-yl)amino)phenoxy)acetic acid]",< 100 nM
2,CCOC(=O)C(C)Oc1ccc(N(CC(C)C)C2CCCCC2)c(NC(=O)Nc2ccc(Cl)cc2F)c1 (racemic) [racemic 67],< 5 nM
3,"COCC(Oc1ccc(N(CC(C)C)C2CCCCC2)c(NC(=O)Nc2ccc(Cl)cc2F)c1)C(=O)O (single isomer, unassigned) [Example 89-1, 2-(3-(3-(4-chloro-2-fluorophenyl)ureido)-4-(cyclohexyl(isobutyl)amino)phenoxy)-3-methoxypropanoic acid]",< 5 nM
4,"CCCC(Oc1ccc(N(CC(C)C)C2CCCCC2)c(NC(=O)Nc2cncnc2)c1)C(=O)O (single isomer, unassigned) [Example 88-2, 2-(4-(cyclohexyl(isobutyl)amino)-3-(3-(pyrimidin-5-yl)ureido)phenoxy)pentanoic acid]",< 100 nM
5,"CC(C)CN(c1ccc(OC(C)C(=O)O)cc1NC(=O)Nc1cncnc1)C1CCCCC1 (single isomer, unassigned) [Example 58-1, 2-(4-(cyclohexyl(isobutyl)amino)-3-(3-(pyrimidin-5-yl)ureido)phenoxy)propanoic acid]",≥ 100 nM
6,"Cc1ccc(NC(=O)Nc2cc(OCC(=O)NS(=O)(=O)N(C)C)ccc2N(CC(C)C)C2CCCCC2)cc1 [Example 52, 2-(4-(cyclohexyl(isobutyl)amino)-3-(3-(p-tolyl)ureido)phenoxy)-N—(N,N-dimethylsulfamoyl)acetamide]",< 100 nM
7,"Cc1ccc(NC(=O)Nc2cc(OCC(=O)O)ccc2N(CC(C)C)C2CCCCC2)cc1F [Example 33, 2-(4-(cyclohexyl(isobutyl)amino)-3-(3-(3-fluoro-4-methylphenyl)ureido)phenoxy)acetic acid]",< 100 nM
8,"CC(C)CN(c1ccc(OCC(=O)O)cc1NC(=O)Nc1ccc(Cl)cc1F)C1COC1 [Example 147, 2-(3-(3-(4-chloro-2-fluorophenyl)ureido)-4-(isobutyl(oxetan-3-yl)amino)phenoxy)acetic acid]",≥ 100 nM
9,"CC(C)CN(c1cc(F)c(OCC(=O)O)cc1NC(=O)Cc1ccc(Cl)cc1F)C1CCCCC1 [Example 133, 2-(5-(2-(4-chloro-2-fluorophenyl)acetamido)-4-(cyclohexyl(isobutyl)amino)-2-fluorophenoxy)acetic acid]",< 100 nM
10,"Cc1ccc(N(C)C(=O)Nc2cc(OCC(=O)O)ccc2N(CC(C)C)C2CCCCC2)cc1 [Example 40, 2-(4-(cyclohexyl(isobutyl)amino)-3-(3-methyl-3-(p-tolyl)ureido)phenoxy)acetic acid]",≥ 100 nM
11,"CCC(Oc1ccc(N(CC(C)C)C2CCCCC2)c(NC(=O)Nc2ccc(Cl)cc2F)c1)C(=O)O (single isomer, unassigned) [Example 80-2, 2-(3-(3-(4-chloro-2-fluorophenyl)ureido)-4-(cyclohexyl(isobutyl)amino)phenoxy)butanoic acid]",< 5 nM
12,"CCCC(Oc1ccc(N(CC(C)C)C2CCCCC2)c(NC(=O)Nc2cncnc2)c1)C(=O)O (single isomer, unassigned) [Example 88-1, 2-(4-(cyclohexyl(isobutyl)amino)-3-(3-(pyrimidin-5-yl)ureido)phenoxy)pentanoic acid]",≥ 100 nM
13,"CC(C)CN(c1cc(F)c(OCC(=O)O)cc1NC(=O)Nc1ccc(Cl)cc1F)C1CCCCC1 [Example 115, 2-(5-(3-(4-chloro-2-fluorophenyl)ureido)-4-(cyclohexyl(isobutyl)amino)-2-fluorophenoxy)acetic acid]",< 5 nM
14,"CC(C)CN(c1ccc(OCC(=O)O)cc1NC(=O)Nc1ccc(Cl)cc1F)C1CCCCC1 [Example 1, 2-(3-(3-(4-chloro-2-fluorophenyl)ureido)-4-(cyclohexyl(isobutyl)amino)phenoxy)acetic acid]",< 5 nM
15,"CC(C)CN(c1ccc(OC2(C(=O)O)CC2)cc1NC(=O)Nc1ccc(Cl)cc1F)C1CCCCC1 [Example 93, 1-(3-(3-(4-chloro-2-fluorophenyl)ureido)-4-(cyclohexyl(isobutyl)amino)phenoxy)cyclopropanecarboxylic acid]",< 5 nM
16,"CC(C)CN(c1ncc(OCC(=O)NS(=O)(=O)C2CC2)cc1NC(=O)Nc1ccc(Cl)cc1F)C1CCCCC1 [Example 103, 2-((5-(3-(4-chloro-2-fluorophenyl)ureido)-6-(cyclohexyl(isobutyl)amino)pyridin-3-yl)oxy)-N-(cyclopropylsulfonyl)acetamide]",< 5 nM
17,"CCC(Oc1ccc(N(CC(C)C)C2CCOCC2)c(NC(=O)Nc2ccc(Cl)cc2F)c1)C(=O)O (single isomer, unassigned) [Example 143-1, 2-(3-(3-(4-chloro-2-fluorophenyl)ureido)-4-(isobutyl(tetrahydro-2H-pyran-4-yl)amino)phenoxy)butanoic acid]",< 100 nM
18,"CC(C)CN(c1cc(F)c(OCC(=O)O)cc1NC(=O)Nc1ccc(F)cc1F)C1CCCCC1 [Example 124, 2-(4-(cyclohexyl(isobutyl)amino)-5-(3-(2,4-difluorophenyl)ureido)-2-fluorophenoxy)acetic acid]",< 100 nM

row,Compound,IC50
1,"CC(C)CN(c1ccc(OC(C)C(=O)O)cc1NC(=O)Nc1cncnc1)C1CCCCC1 (single isomer, unassigned) [Example 58-2, 2-(4-(cyclohexyl(isobutyl)amino)-3-(3-(pyrimidin-5-yl)ureido)phenoxy)propanoic acid]",< 100 nM
2,"CC(C)CN(c1c(F)cc(OCC(=O)NS(=O)(=O)C2CC2)cc1NC(=O)Nc1ccc(Cl)cc1F)C1CCCCC1 [Example 105, 2-(3-(3-(4-chloro-2-fluorophenyl)ureido)-4-(cyclohexyl(isobutyl)amino)-5-fluorophenoxy)-N-(cyclopropylsulfonyl)acetamide]",< 5 nM
3,"CCCN(Cc1ccccc1)c1ccc(OCC(=O)O)cc1NC(=O)Nc1ccc(OCC)cc1 [Example 161, 2-(4-(benzyl(propyl)amino)-3-(3-(4-ethoxyphenyl)ureido)phenoxy)acetic acid]",≥ 100 nM
4,"CC(C)CN(c1ccc(OCC(=O)O)cc1NC(=O)Nc1cc(F)ccc1F)C1CCCCC1 [Example 20, 2-(4-(cyclohexyl(isobutyl)amino)-3-(3-(2,5-difluorophenyl)ureido)phenoxy)acetic acid]",< 5 nM
5,"COc1ccc(NC(=O)Nc2cc(OCC(=O)O)ccc2N(CC(C)C)C2CCCCC2)cc1F [Example 34, 2-(4-(cyclohexyl(isobutyl)amino)-3-(3-(3-fluoro-4-methoxyphenyl)ureido)phenoxy) acetic acid]",≥ 100 nM
6,"CC(C)CN(c1ccc(OC(C)c2ncco2)cc1NC(=O)Nc1ccc(Cl)cc1F)C1CCCCC1 (stereo not drawn) [Example 157, 1-(4-chloro-2-fluorophenyl)-3-(2-(cyclohexyl(isobutyl)amino)-5-(1-(oxazol-2-yl)ethoxy)phenyl)urea]",< 100 nM
7,"COCCN(c1ccc(OCC(=O)O)cc1NC(=O)Nc1ccc(Cl)cc1F)C1CCCCC1 [Example 116, 2-(3-(3-(4-chloro-2-fluorophenyl)ureido)-4-(cyclohexyl(2-methoxyethyl)amino)phenoxy)acetic acid]",< 100 nM
8,"CCC(Oc1ccc(N(CC(C)C)C2CCCCC2)c(NC(=O)Nc2ccccc2F)c1)C(=O)O (single isomer, unassigned) [Example 81-2, 2-(4-(cyclohexyl(isobutyl)amino)-3-(3-(2-fluorophenyl)ureido)phenoxy)butanoic acid]",< 5 nM
9,"CC(C)CN(c1cc(F)c(OCC(=O)O)cc1NC(=O)Nc1ccc(OC(F)(F)F)cc1)C1CCCCC1 [Example 127, 2-(4-(cyclohexyl(isobutyl)amino)-2-fluoro-5-(3-(4-(trifluoromethoxy)phenyl)ureido)phenoxy)acetic acid]",< 100 nM
10,CC(C)CN(c1ccc(OC(C(=O)O)C(C)C)cc1NC(=O)Nc1ccc(Cl)cc1F)C1CCCCC1 (racemic) [Example 83],< 5 nM
11,"CC(C)CN(c1ccc(OCC(=O)O)cc1NC(=O)Nc1ccc(C#N)cc1)C1CCCCC1 [Example 39, 2-(3-(3-(4-cyanophenyl)ureido)-4-(cyclohexyl(isobutyl)amino)phenoxy)acetic acid]",≥ 100 nM
12,C=C(C)CN(CCCC(F)(F)F)c1cc(F)c(OCC(=O)O)cc1NC(=O)Nc1ccc(C)cc1 [Example 120],< 100 nM
13,"CC(C)CN(c1ccc(OCC(=O)O)cc1NC(=O)Nc1nccs1)C1CCCCC1 [Example 12, 2-(4-(cyclohexyl(isobutyl)amino)-3-(3-(thiazol-2-yl)ureido)phenoxy)acetic acid]",≥ 100 nM
14,CC(C)CN(c1ccc(OC(C)C(=O)O)cc1NC(=O)Nc1ccc(C#N)cc1)C1CCCCC1 (racemic) [racemic 66],≥ 100 nM
15,"Cc1ccc(CC(=O)Nc2cc(OC(C)C(=O)O)ccc2N(CC(C)C)C2CCCCC2)cc1 (racemic) [Example 75, 2-(4-(cyclohexyl(isobutyl)amino)-3-(2-(p-tolyl)acetamido)phenoxy)propanoic acid]",< 100 nM
16,"Cc1ccc(F)cc1NC(=O)Nc1cc(OCC(=O)O)ccc1N(CC(C)C)C1CCCCC1 [Example 30, 2-(4-(cyclohexyl(isobutyl)amino)-3-(3-(5-fluoro-2-methylphenyl)ureido)phenoxy)acetic acid]",≥ 100 nM
17,"CC(C)CN(c1ccc(OC(C)C(=O)NS(=O)(=O)C2CC2)cc1NC(=O)Cc1ccc(Cl)cc1F)C1CCCCC1 (racemic) [Example 77, (±)-2-(3-(2-(4-chloro-2-fluorophenyl)acetamido)-4-(cyclohexyl(isobutyl)amino)phenoxy)-N-(cyclopropylsulfonyl) propanamide]",< 100 nM
18,"COc1cnc(Nc2cc(OC(C)C(=O)O)ccc2N(CC(C)C)C2CCCCC2)nc1 (racemic) [Example 63, (±)-2-(4-(cyclohexyl(isobutyl)amino)-3-((5-methoxypyrimidin-2-yl)amino)phenoxy)propanoic acid]",≥ 100 nM
